The assay has as its target T1, TAOK2 (TAO1) (Homo sapiens, UniProt Q9UL54).
T1 construct: purchased Thermo Fisher Scientific (Life Technologies) SelectScreen
Kind of assay: SelectScreen Z'LYTE. The assay is classed as biochemical. The essentials:
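Percent values come from Thermo SelectScreen profiling of NU5455, combining activity and binding assays. CSF1R was run in Z'LYTE format at Km app ATP, and CAMK1 in Adapta format with ATP listed at 10.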

One may read the inhibition as the drop in the measured response relative to a control, in per cent.

Structures are written as SMILES.

T1 sequence (Q9UL54 whole entry): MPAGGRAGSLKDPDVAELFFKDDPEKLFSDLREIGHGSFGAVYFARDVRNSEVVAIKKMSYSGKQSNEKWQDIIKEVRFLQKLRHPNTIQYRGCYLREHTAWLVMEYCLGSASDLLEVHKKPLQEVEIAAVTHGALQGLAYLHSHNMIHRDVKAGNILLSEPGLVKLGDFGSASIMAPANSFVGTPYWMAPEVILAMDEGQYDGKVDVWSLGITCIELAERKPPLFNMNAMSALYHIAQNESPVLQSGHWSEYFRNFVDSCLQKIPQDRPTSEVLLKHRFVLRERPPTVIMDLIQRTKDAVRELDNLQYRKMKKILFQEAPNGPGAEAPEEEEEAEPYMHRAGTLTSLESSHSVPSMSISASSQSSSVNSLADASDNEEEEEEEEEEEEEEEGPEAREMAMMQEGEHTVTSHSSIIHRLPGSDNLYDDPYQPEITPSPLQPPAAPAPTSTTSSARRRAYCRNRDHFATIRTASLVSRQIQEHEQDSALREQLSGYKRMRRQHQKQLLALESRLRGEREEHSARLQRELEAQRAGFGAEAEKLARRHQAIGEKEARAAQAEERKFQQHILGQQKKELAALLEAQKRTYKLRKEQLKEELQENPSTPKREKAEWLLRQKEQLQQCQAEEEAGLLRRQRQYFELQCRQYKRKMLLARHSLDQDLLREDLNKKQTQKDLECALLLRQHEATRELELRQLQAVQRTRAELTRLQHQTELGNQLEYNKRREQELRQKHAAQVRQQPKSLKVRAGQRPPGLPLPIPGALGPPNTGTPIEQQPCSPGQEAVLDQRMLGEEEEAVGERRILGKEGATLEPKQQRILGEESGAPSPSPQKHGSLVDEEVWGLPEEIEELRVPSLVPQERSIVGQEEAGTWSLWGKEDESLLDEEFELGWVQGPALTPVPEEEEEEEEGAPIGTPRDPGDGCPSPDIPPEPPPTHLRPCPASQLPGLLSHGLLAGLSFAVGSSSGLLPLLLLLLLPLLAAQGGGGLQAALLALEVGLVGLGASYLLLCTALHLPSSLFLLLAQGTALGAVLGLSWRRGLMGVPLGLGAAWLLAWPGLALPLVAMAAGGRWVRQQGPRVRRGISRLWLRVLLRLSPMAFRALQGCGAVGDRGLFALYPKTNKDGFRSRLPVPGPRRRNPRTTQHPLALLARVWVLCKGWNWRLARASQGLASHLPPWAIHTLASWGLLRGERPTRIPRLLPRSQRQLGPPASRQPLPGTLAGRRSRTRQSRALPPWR

On to `CN(C(=O)CN1CCOCC1)c1ccc2sc3c(-c4cccc5c(=O)cc(N6CC7CCC(C6)O7)oc45)cccc3c2c1` [NU5455], for which the inhibition at 1 µM was -5.1%.

For the origin of these results see PMC6934184, “Selective DNA-PKcs inhibition extends the therapeutic index of localized radiotherapy and chemotherapy” (The Journal of Clinical Investigation, 2019).
